Measured values from ChEMBL document CHEMBL3853278, “Metabolomic Profiling Reveals the N-Acyl-Taurine Geodiataurine in Extracts from the Marine Sponge Geodia macandrewii (Bowerbank)” (J Nat Prod, 2016).

Assay: Cytotoxicity in human A2058 cells assessed as reduction in cell viability after 72 hrs by cell titer 96 aqueous one assay
Type: functional, cell-based
Conditions: A2058, 72 h

## CC(C)=CCC/C(C)=C/CC/C(C)=C/CCC(C)C(=O)NCCS(=O)(=O)O (stereo unspecified)
  IC50: 8.5 µM
